Source: ChEMBL document CHEMBL1201862, “PubChem BioAssay data set” (2004)
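In this assay, cells in 96-well plates receive the compound at five concentrations for 48 hours. Endpoints are linearly interpolated between the surrounding concentrations. GI50 is the concentration that inhibits growth by half.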 Activity calls are given as the source filed them. Cut-off read from the data, not from the text of the source: active = GI50 up to about 1.1 µM and inactive = higher.

Legend:
Assay in all cases: NCI anticancer screen, dose series, 48 h
Hs-578T = tested on: Hs-578T
SK-MEL-28 = tested on: SK-MEL-28
ACHN = tested on: ACHN
MCF7 = tested on: MCF7
HOP-62 = tested on: HOP-62
EKVX = tested on: EKVX
SR = tested on: SR
SN12C = tested on: SN12C
A498 = tested on: A498
LOX IMVI = tested on: LOX IMVI
IGROV-1 = tested on: IGROV-1
HCT-116 = tested on: HCT-116
Malme-3M = tested on: Malme-3M
TK-10 = tested on: TK-10
OVCAR-8 = tested on: OVCAR-8
UACC-62 = tested on: UACC-62
HT-29 = tested on: HT-29
CCRF-CEM = tested on: CCRF-CEM
M14 = tested on: M14
KM12 = tested on: KM12
786-0 = tested on: 786-0
BT-549 = tested on: BT-549
SK-OV-3 = tested on: SK-OV-3
MDA-N = tested on: MDA-N
NCI-H23 = tested on: NCI-H23
NCI-H226 = tested on: NCI-H226
MDA-MB-435 = tested on: MDA-MB-435
HCT-15 = tested on: HCT-15
SNB-19 = tested on: SNB-19
RXF 393 = tested on: RXF 393
SNB-75 = tested on: SNB-75
HOP-92 = tested on: HOP-92
MOLT-4 = tested on: MOLT-4
OVCAR-5 = tested on: OVCAR-5
T47D = tested on: T47D
MDA-MB-231 = tested on: MDA-MB-231
RPMI-8226 = tested on: RPMI-8226
SF-295 = tested on: SF-295
SF-268 = tested on: SF-268
PC-3 = tested on: PC-3
OVCAR-4 = tested on: OVCAR-4
SK-MEL-5 = tested on: SK-MEL-5
SK-MEL-2 = tested on: SK-MEL-2
SF-539 = tested on: SF-539
UO-31 = tested on: UO-31
HL-60 = tested on: HL-60
DU-145 = tested on: DU-145
U-251 = tested on: U-251
OVCAR-3 = tested on: OVCAR-3
NCI-H522 = tested on: NCI-H522
COLO 205 = tested on: COLO 205
A549 = tested on: A549
UACC-257 = tested on: UACC-257
CAKI-1 = tested on: CAKI-1
NCI-H460 = tested on: NCI-H460
SW-620 = tested on: SW-620
NCI/ADR-RES = tested on: NCI/ADR-RES
K562 = tested on: K562
HCC 2998 = tested on: HCC 2998

O=C(O)C(C1NCCS1)N1C(=O)c2ccccc2C1=O (stereo unspecified)
GI50 (Hs-578T): > 100 µM (inactive) | GI50 (SK-MEL-28): > 100 µM (inactive) | GI50 (ACHN): > 100 µM (inactive) | GI50 (MCF7): > 100 µM (inactive) | GI50 (HOP-62): > 100 µM (inactive) | GI50 (EKVX): > 100 µM (inactive) | GI50 (SR): > 100 µM (inactive) | GI50 (SN12C): > 100 µM (inactive) | GI50 (A498): > 100 µM (inactive) | GI50 (LOX IMVI): > 100 µM (inactive) | GI50 (IGROV-1): > 100 µM (inactive) | GI50 (HCT-116): > 100 µM (inactive) | GI50 (Malme-3M): > 100 µM (inactive) | GI50 (TK-10): > 100 µM (inactive) | GI50 (OVCAR-8): > 100 µM (inactive) | GI50 (UACC-62): > 100 µM (inactive) | GI50 (HT-29): > 100 µM (inactive) | GI50 (CCRF-CEM): > 100 µM (inactive) | GI50 (M14): > 100 µM (inactive) | GI50 (KM12): > 100 µM (inactive) | GI50 (786-0): > 100 µM (inactive) | GI50 (BT-549): > 100 µM (inactive) | GI50 (SK-OV-3): > 100 µM (inactive) | GI50 (MDA-N): > 100 µM (inactive) | GI50 (NCI-H23): > 100 µM (inactive) | GI50 (NCI-H226): > 100 µM (inactive) | GI50 (MDA-MB-435): > 100 µM (inactive) | GI50 (HCT-15): > 100 µM | GI50 (SNB-19): > 100 µM (inactive) | GI50 (RXF 393): > 100 µM (inactive) | GI50 (SNB-75): > 100 µM (inactive) | GI50 (HOP-92): > 100 µM (inactive) | GI50 (MOLT-4): > 100 µM (inactive) | GI50 (OVCAR-5): > 100 µM (inactive) | GI50 (T47D): > 100 µM (inactive) | GI50 (MDA-MB-231): > 100 µM (inactive) | GI50 (RPMI-8226): > 100 µM (inactive) | GI50 (SF-295): > 100 µM (inactive) | GI50 (SF-268): > 100 µM (inactive) | GI50 (PC-3): > 100 µM (inactive) | GI50 (OVCAR-4): > 100 µM (inactive) | GI50 (SK-MEL-5): > 100 µM (inactive) | GI50 (SK-MEL-2): > 100 µM (inactive) | GI50 (SF-539): > 100 µM (inactive) | GI50 (UO-31): > 100 µM (inactive) | GI50 (HL-60): > 100 µM (inactive) | GI50 (DU-145): > 100 µM (inactive) | GI50 (U-251): > 100 µM (inactive) | GI50 (OVCAR-3): > 100 µM (inactive) | GI50 (NCI-H522): > 100 µM (inactive) | GI50 (COLO 205): > 100 µM (inactive) | GI50 (A549): > 100 µM (inactive) | GI50 (UACC-257): > 100 µM (inactive) | GI50 (CAKI-1): > 100 µM (inactive) | GI50 (NCI-H460): > 100 µM (inactive) | GI50 (SW-620): > 100 µM (inactive) | GI50 (NCI/ADR-RES): > 100 µM (inactive) | GI50 (K562): > 100 µM (inactive)

COC(=O)C1=C(O)C(C(=O)OC)[C@@]2(O)[C@@H](C(=O)OC)C(c3ccc(OC(=O)/C=C/c4ccccc4)cc3)C[C@@H]1[C@@H]2C(=O)OC (stereo partly specified)
GI50 (Hs-578T): 68.4 µM (inactive) | GI50 (SK-MEL-28): 20 µM (inactive) | GI50 (ACHN): 18.9 µM (inactive) | GI50 (MCF7): 2.99 µM (inactive) | GI50 (HOP-62): 23.8 µM (inactive) | GI50 (EKVX): 12.3 µM (inactive) | GI50 (SR): 3.02 µM (inactive) | GI50 (SN12C): 7.11 µM (inactive) | GI50 (A498): 34.8 µM (inactive) | GI50 (LOX IMVI): 2.31 µM (inactive) | GI50 (IGROV-1): 8.04 µM (inactive) | GI50 (HCT-116): 4.24 µM (inactive) | GI50 (HCC 2998): 4.89 µM (inactive) | GI50 (Malme-3M): 25.1 µM (inactive) | GI50 (TK-10): 6.82 µM (inactive) | GI50 (OVCAR-8): 8.69 µM (inactive) | GI50 (UACC-62): 4.36 µM (inactive) | GI50 (HT-29): 3.66 µM (inactive) | GI50 (CCRF-CEM): 2.68 µM (inactive) | GI50 (M14): 6.84 µM (inactive) | GI50 (KM12): 5.37 µM (inactive) | GI50 (786-0): 10 µM (inactive) | GI50 (BT-549): 8.22 µM (inactive) | GI50 (SK-OV-3): 75.5 µM (inactive) | GI50 (MDA-N): 3.24 µM (inactive) | GI50 (NCI-H23): 13.3 µM (inactive) | GI50 (NCI-H226): 22.6 µM (inactive) | GI50 (MDA-MB-435): 4.83 µM (inactive) | GI50 (HCT-15): 3.89 µM | GI50 (SNB-19): 20.6 µM (inactive) | GI50 (RXF 393): 3.06 µM (inactive) | GI50 (SNB-75): 29.6 µM (inactive) | GI50 (HOP-92): 29.4 µM (inactive) | GI50 (MOLT-4): 2.61 µM (inactive) | GI50 (OVCAR-5): 12.1 µM (inactive) | GI50 (T47D): 8.49 µM (inactive) | GI50 (MDA-MB-231): 14.7 µM (inactive) | GI50 (SF-295): 23.9 µM (inactive) | GI50 (SF-268): 9.79 µM (inactive) | GI50 (PC-3): 6.84 µM (inactive) | GI50 (OVCAR-4): 6.18 µM (inactive) | GI50 (SK-MEL-5): 10.6 µM (inactive) | GI50 (SK-MEL-2): 4.32 µM (inactive) | GI50 (SF-539): 3.43 µM (inactive) | GI50 (UO-31): 10.6 µM (inactive) | GI50 (HL-60): 4.55 µM (inactive) | GI50 (DU-145): 11 µM (inactive) | GI50 (U-251): 6.15 µM (inactive) | GI50 (OVCAR-3): 9.77 µM (inactive) | GI50 (NCI-H522): 5.3 µM (inactive) | GI50 (COLO 205): 10.1 µM (inactive) | GI50 (A549): 12.6 µM (inactive) | GI50 (UACC-257): 7.23 µM (inactive) | GI50 (CAKI-1): 7.36 µM (inactive) | GI50 (NCI-H460): 2.64 µM (inactive) | GI50 (SW-620): 6.01 µM (inactive) | GI50 (NCI/ADR-RES): 8.41 µM (inactive) | GI50 (K562): 5.79 µM (inactive)
